The target in this assay is T1, TG2 (transglutaminase-2, transglutaminase type 2) (Homo sapiens, UniProt P21980, R28S).
T1 sequence (P21980 1-687 R28S): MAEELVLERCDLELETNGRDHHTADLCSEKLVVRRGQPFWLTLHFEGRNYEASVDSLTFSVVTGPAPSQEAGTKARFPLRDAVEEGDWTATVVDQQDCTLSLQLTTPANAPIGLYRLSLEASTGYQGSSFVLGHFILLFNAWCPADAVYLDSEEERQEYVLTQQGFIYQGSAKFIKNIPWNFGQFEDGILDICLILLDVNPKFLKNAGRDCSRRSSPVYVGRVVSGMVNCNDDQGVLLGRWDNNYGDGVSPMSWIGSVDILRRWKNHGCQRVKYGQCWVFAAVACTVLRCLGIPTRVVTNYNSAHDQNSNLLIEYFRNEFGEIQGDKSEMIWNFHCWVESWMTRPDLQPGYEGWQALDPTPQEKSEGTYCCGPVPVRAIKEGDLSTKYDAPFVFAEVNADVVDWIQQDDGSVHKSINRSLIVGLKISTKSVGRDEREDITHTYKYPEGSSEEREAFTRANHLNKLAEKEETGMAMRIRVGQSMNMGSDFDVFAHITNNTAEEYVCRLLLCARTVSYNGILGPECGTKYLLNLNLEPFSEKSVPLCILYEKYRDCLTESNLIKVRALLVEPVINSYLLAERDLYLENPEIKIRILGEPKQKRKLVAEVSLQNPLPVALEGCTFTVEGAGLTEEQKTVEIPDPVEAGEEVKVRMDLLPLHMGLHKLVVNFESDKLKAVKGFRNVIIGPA
The class given is biochemical.

Each structure is given as a SMILES string.

What is called IC50 is the concentration needed to halve the response being measured. `Nc1nc2c(ncn2[C@@H]2O[C@H](COP(=O)(O)OP(=O)(O)OP(=O)(O)O)[C@@H](O)[C@H]2O)c(=O)[nH]1` [GTP] came in with a half-inhibitory concentration (IC50) of 64 ± 27 µM.

(Values after paper PMC3365763 (The Journal of Biological Chemistry, 2012).)
